Data on 16 compounds can be found in ChEMBL document CHEMBL5532639, “Heterocyclic pyrimidine derivatives as promising antibacterial agents” (Eur J Med Chem, 2023).

In test [1] the test system is Escherichia coli. In words: Antimicrobial activity against Escherichia coli RCMB 010052 assessed as bacterial growth inhibition by measuring zone of inhibition at 50 ug/ml by agar cup diffusion assay. As to conditions: read-out: IZ. In kind it is functional.
Another test deals with Streptococcus pneumoniae. Nature of the test: Antimicrobial activity against Streptococcus […] assessed as bacterial growth inhibition by measuring zone of inhibition at 50 ug/ml by agar cup diffusion assay. As to conditions: read-out: IZ. In kind it is functional.
In test [2] the test system is Bacillus subtilis. Nature of the test: Antimicrobial activity against Bacillus subtilis RCMB 010069 assessed as bacterial growth inhibition by measuring zone of inhibition at 50 ug/ml by agar cup diffusion assay. The note with it: read-out: IZ. Type of test: functional.
The test system of the next test is Pseudomonas aeruginosa. Nature of the test: Antibacterial activity against Pseudomonas aeruginosa assessed as reduction in microbial growth by measuring zone of inhibition. Type of test: functional.
Test [3] concerns Staphylococcus aureus. Nature of the test: Antibacterial activity against Staphylococcus aureus assessed as reduction in microbial growth by measuring zone of inhibition. In kind it is functional.
In test [4] the test system is Bacillus subtilis. In words: Antibacterial activity against Bacillus subtilis assessed as reduction in microbial growth by measuring zone of inhibition. Type of test: functional.
For test [5], the system named is Escherichia coli. Nature of the test: Antibacterial activity against Escherichia coli assessed as reduction in microbial growth by measuring zone of inhibition. In kind it is functional.
In test [6] the test system is Escherichia coli. In words: Antibacterial activity against Escherichia coli ATCC 25922 assessed as bacterial growth inhibition. In kind it is functional.
The subject of test [7] is Bacillus subtilis. Nature of the test: Antibacterial activity against Bacillus subtilis 6633 assessed as reduction in bacterial growth. In kind it is functional.
Test [8] has as its system Staphylococcus aureus. Nature of the test: Antibacterial activity against Staphylococcus aureus ATCC 3750 assessed as reduction in bacterial growth. Type of test: functional.
A further test relates to Salmonella typhimurium. In words: Antibacterial activity against Salmonella typhimurium DT104 assessed as reduction in bacterial growth. Type of test: functional, Salmonella enterica subsp. enterica serovar Typhimurium. The note with it: Salmonella enterica.
A further test has as its system Serratia marcescens. Nature of the test: Antibacterial activity against Serratia marcescens assessed as zone of inhibition at 20 microg/ml. In kind it is functional. The note with it: read-out: IZ.
In test [9] the test system is Bacillus subtilis. Nature of the test: Antibacterial activity against Bacillus subtilis assessed as zone of inhibition at 20 mg/ml. In kind it is functional. The note with it: read-out: IZ.
For test [10], the system named is Staphylococcus aureus. In words: Antibacterial activity against Staphylococcus aureus assessed as zone of inhibition at 20 mg/ml. Type of test: functional. The note with it: read-out: IZ.
A further test has as its system Sarcina. Nature of the test: Antibacterial activity against Sarcina assessed as zone of inhibition at 20 mg/ml. In kind it is functional. The note with it: read-out: IZ.
Test [11] relates to Escherichia coli. In words: Antibacterial activity against Escherichia coli assessed as zone of inhibition at 20 mg/ml. Type of test: functional. The note with it: read-out: IZ.
Test [12] relates to Bacillus subtilis. In words: Antibacterial activity against Bacillus subtilis ATCC 465 assessed as reduction in bacterial growth measured after 24 hrs by Mueller-Hinton broth assay. In kind it is functional.
Test [13] has as its system Staphylococcus aureus. Nature of the test: microbe, parasite or virus in culture. As to conditions: ATCC 25923, 24 h.
Description: Antibacterial activity against Staphylococcus aureus ATCC 25923 assessed as reduction in bacterial growth measured after 24 hrs by Mueller-Hinton broth assay
The subject of test [14] is Staphylococcus aureus. In words: Antibacterial activity against Staphylococcus aureus assessed as bacterial growth inhibition by measuring zone of inhibition at 50 ug/ml by agar cup diffusion assay. Type of test: functional. The note with it: read-out: IZ.
The subject of test [15] is Escherichia coli. Nature of the test: Antibacterial activity against Escherichia coli assessed as bacterial growth inhibition by measuring zone of inhibition at 50 ug/ml by agar cup diffusion assay. In kind it is functional. The note with it: read-out: IZ.

Each structure is given as a SMILES string. ≈ marks a conversion by molar mass, not a printed value.

With `O=C1OC(c2ccc(C(=O)O)cc2)N=C1/C=C/c1ccc(C(=O)c2ccco2)cc1` (centres undefined), the values for the zone of inhibition at 50 µg/mL in the test on Escherichia coli [1], in the test on Streptococcus pneumoniae and in the test on Bacillus subtilis [2] were 16.7 mm, 19.3 mm and 21.2 mm, respectively.
In the case of `Nc1ncccc1/C=N/Nc1nc(SCc2ccccc2)ncc1I`, the “inhibition zone (IZ)” value amounted to 18 mm in the test on Pseudomonas aeruginosa, 18 mm in the test on Staphylococcus aureus [3], 17 mm in the test on Bacillus subtilis [4] and 7 mm with Escherichia coli [5].
As for `Cc1ccc(-c2c(C(=O)c3ccc(C(=O)O)cc3)c(N)nc3ncnn23)cc1`, the zone of inhibition at 50 µg/mL was 16.6 mm in the test on Escherichia coli [1], 20.7 mm in the test on Streptococcus pneumoniae and 26.8 mm in the test on Bacillus subtilis [2].
`O=C1OC(c2ccc(C(=O)O)cc2)N=C1/C=C/c1ccc(C(=O)c2ccc(Cl)cc2)cc1` (centres undefined): the figures for the zone of inhibition at 50 µg/mL in the test on Escherichia coli [1], in the test with Streptococcus pneumoniae and in the test with Bacillus subtilis [2] were 18.2 mm, 21.8 mm and 24.3 mm, respectively.
On the same counts, the results for `Nc1nc2ncnn2c(-c2ccc(Br)cc2)c1C(=O)c1ccc(C(=O)O)cc1` are 18.3 mm, 21.3 mm and 28.9 mm.
`Cc1nc2scc(-c3ccco3)c2c(=O)n1NC(=O)c1ccc([N+](=O)[O-])cc1`: the MIC in the test with Escherichia coli [6] worked out at 7 µg/mL (≈ 17.7 µM); with Bacillus subtilis [7], 5 µg/mL (≈ 12.6 µM); with Staphylococcus aureus [8], 6 µg/mL (≈ 15.1 µM); in the test with Salmonella typhimurium it was 5 µg/mL (≈ 12.6 µM).
As for `O=[N+]([O-])c1ccc(Nc2nc(SCc3ccccc3)ncc2I)cc1`, the “inhibition zone (IZ)” value with Pseudomonas aeruginosa came to 10 mm; in the test on Staphylococcus aureus [3] it was 16 mm; in the test with Bacillus subtilis [4], 14 mm; in the test on Escherichia coli [5], 5 mm.
Turning to `Cc1cnc(NS(=O)(=O)c2ccc(/N=N/c3c(=O)[nH]n4c(NN)c(C#N)c(N)nc34)cc2)nc1`, the zone of inhibition at 20 µg/mL in the test with Serratia marcescens is 15 mm. For the same compound, the zone of inhibition at 20000 µg/mL worked out at 9 mm in the test on Bacillus subtilis [9], 9 mm with Staphylococcus aureus [10], 12 mm in the test with Sarcina and 12 mm in the test on Escherichia coli [11].
As to `Clc1ccc(/C=N/Nc2nc(SCc3ccccc3)ncc2I)cc1`, the “inhibition zone (IZ)” value in the test with Pseudomonas aeruginosa stood at 18 mm; in the test on Staphylococcus aureus [3] it was 10 mm; in the test on Bacillus subtilis [4], 10 mm; with Escherichia coli [5], 8 mm.
Regarding `N#Cc1nc2[nH]c(=O)[nH]c(=O)c2c(-c2c(Cl)cccc2Cl)c1N`, the MIC with Bacillus subtilis [12] was 4 µg/mL (≈ 11.5 µM); in the test on Staphylococcus aureus [13] it was 64 µg/mL (≈ 184 µM).
Consider `Cc1nc2scc(-c3ccco3)c2c(=O)n1/N=C/c1ccc(Cl)cc1Cl`, for which the MIC with Escherichia coli [6] is 6 µg/mL (≈ 14.8 µM); with Bacillus subtilis [7], 4 µg/mL (≈ 9.89 µM); in the test with Staphylococcus aureus [8], 4 µg/mL (≈ 9.89 µM); in the test with Salmonella typhimurium, 5 µg/mL (≈ 12.4 µM).
In the case of `Cc1ccc(Nc2c(C#N)c(N)nc3c(/N=N/c4ccc(S(=O)(=O)Nc5ncc(C)cn5)cc4)c(=O)[nH]n23)cc1`, the zone of inhibition at 20 µg/mL in the test with Serratia marcescens was found to be 15 mm. The zone of inhibition at 20000 µg/mL in the test on Bacillus subtilis [9] came out at 9 mm; with Staphylococcus aureus [10], 12 mm; in the test on Sarcina it was 15 mm; with Escherichia coli [11], 12 mm.
In the case of `Ic1cnc(SCc2ccccc2)nc1N/N=C/c1c(-c2ccccc2)c(-c2ccccc2)nn1-c1ccccc1`, the “inhibition zone (IZ)” value with Pseudomonas aeruginosa is 16 mm; in the test with Staphylococcus aureus [3], 18 mm; in the test with Bacillus subtilis [4], 20 mm; in the test on Escherichia coli [5] it was 10 mm.
Regarding `COc1ccc(Nc2c(C#N)c(N)nc3c(/N=N/c4ccc(S(=O)(=O)Nc5ncccn5)cc4)c(=O)[nH]n23)cc1`, the zone of inhibition at 20 µg/mL in the test on Serratia marcescens stood at 15 mm. In addition, the zone of inhibition at 20000 µg/mL in the test on Bacillus subtilis [9] was 9 mm; in the test with Staphylococcus aureus [10], 12 mm; with Sarcina it was 15 mm; in the test on Escherichia coli [11] it was 15 mm.
On to `O=C(CSc1nnc(-c2cccnc2N2CCOCC2)o1)Nc1nc(-c2ccc(F)cc2)cc(-c2cc(F)c(Cl)cc2Cl)n1`, for which the zone of inhibition at 50 µg/mL with Staphylococcus aureus [14] and with Escherichia coli [15] was 11 mm in each case.
On to `COc1ccc(/C=N/Nc2nc(SCc3ccccc3)ncc2I)cc1O`, for which the “inhibition zone (IZ)” value amounted to 19 mm with Pseudomonas aeruginosa, 12 mm in the test on Staphylococcus aureus [3], 13 mm with Bacillus subtilis [4] and 4 mm in the test with Escherichia coli [5].
